In ChEMBL document CHEMBL1158374, “Exploring QSAR and QAAR for inhibitors of cytochrome P450 2A6 and 2A5 enzymes using GFA and G/PLS techniques” (Eur J Med Chem, 2009):
pIC50: −log10 of the molar value.

How the values were obtained:
Cytochrome P450 2A6 = biological target: T1, Cytochrome P450 2A6 (Homo sapiens, UniProt P11509); assay: Inhibition of human CYP2A6
T1 sequence (P11509 whole entry): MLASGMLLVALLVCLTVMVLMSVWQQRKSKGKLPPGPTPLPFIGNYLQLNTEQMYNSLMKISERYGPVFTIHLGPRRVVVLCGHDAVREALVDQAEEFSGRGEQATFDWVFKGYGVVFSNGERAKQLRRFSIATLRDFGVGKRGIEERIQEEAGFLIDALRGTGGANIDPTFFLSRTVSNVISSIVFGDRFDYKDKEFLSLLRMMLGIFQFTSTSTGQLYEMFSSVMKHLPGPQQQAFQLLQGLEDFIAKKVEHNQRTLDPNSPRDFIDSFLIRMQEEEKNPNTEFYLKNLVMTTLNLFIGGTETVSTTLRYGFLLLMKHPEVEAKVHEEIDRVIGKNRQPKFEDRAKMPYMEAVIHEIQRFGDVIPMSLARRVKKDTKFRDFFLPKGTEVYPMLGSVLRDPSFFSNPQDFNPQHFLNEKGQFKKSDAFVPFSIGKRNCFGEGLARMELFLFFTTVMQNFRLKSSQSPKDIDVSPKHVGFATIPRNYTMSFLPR

Cytochrome P450 2A5 = biological target: T2, Cytochrome P450 2A5 (Mus musculus, UniProt P20852); assay: Inhibition of mouse CYP2A5
T2 sequence (P20852 whole entry): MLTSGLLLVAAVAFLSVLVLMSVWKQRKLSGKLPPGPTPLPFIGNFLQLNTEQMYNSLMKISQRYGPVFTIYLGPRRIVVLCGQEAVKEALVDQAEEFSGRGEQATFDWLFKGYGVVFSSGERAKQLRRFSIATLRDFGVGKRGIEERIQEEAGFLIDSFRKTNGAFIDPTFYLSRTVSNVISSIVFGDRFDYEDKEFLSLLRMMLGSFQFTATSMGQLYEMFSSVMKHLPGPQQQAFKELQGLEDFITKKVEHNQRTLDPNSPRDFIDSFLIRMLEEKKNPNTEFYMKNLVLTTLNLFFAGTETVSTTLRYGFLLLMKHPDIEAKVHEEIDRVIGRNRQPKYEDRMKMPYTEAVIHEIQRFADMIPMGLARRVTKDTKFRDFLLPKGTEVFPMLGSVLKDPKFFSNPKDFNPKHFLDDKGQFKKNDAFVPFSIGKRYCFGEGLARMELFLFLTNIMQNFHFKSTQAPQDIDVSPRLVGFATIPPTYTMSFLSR

## CN1CCC[C@H]1c1cccnc1 [NICOTINE]
Cytochrome P450 2A6
  pIC50: 3.24
Cytochrome P450 2A5
  pIC50: 3.80

## Clc1ccc(-c2ccccc2)cc1
Cytochrome P450 2A5
  pIC50: 4.89

## CN1C(=O)CCC1c1cccnc1 (centres undefined)
Cytochrome P450 2A5
  pIC50: 2.82
